Results published in publication PMC7749635 (2021).
Values belong to the molecule of their own block, whether it stands above or below them.

Columns and labels:
Assay in all cases: in-line probing
[1] = test system: 85 pnuC (RNA, riboswitch) GGAGGAGAAGCGGUUCAAAUCGAAAAUCUAUAGAGCGUUGCGUCCGAAAGUCUAAACAGACACGGCUCUUUAAAAACAAAAGGAGAAG; settings: 20 mM Mg2+, 100 mM K+; 50 mM Tris-HCl pH 8.3, ~23 °C; tested at 0.1 and 1 mM
[2] = test system: M1 (G35U) (RNA, riboswitch) GGAAAAUCUAUAGAGCUUUGCGUCCGAAAGUCUAAACAGACACGGCUCUUUAAAAACAAAAGGAGAAG; settings: 20 mM Mg2+, 100 mM K+; 50 mM Tris-HCl pH 8.3, ~23 °C; tested at 1 mM
[3] = test system: M2 (A60U) (RNA, riboswitch) GGAAAAUCUAUAGAGCGUUGCGUCCGAAAGUCUAAACAGACUCGGCUCUUUAAAAACAAAAGGAGAAG; settings: 20 mM Mg2+, 100 mM K+; 50 mM Tris-HCl pH 8.3, ~23 °C; tested at 1 mM
[4] = test system: 65 pnuC (RNA, riboswitch) GGAAAAUCUAUAGAGCGUUGCGUCCGAAAGUCUAAACAGACACGGCUCUUUAAAAACAAAAGGAGAAG; settings: 20 mM Mg2+, 100 mM K+, 50 mM Tris-HCl pH 8.3, ~23 °C

Compound: Cc1cc2nc3c(=O)[nH]c(=O)nc-3n(C[C@H](O)[C@H](O)[C@H](O)COP(=O)(O)O)c2cc1C
binding [1]: no

Compound: Cc1ncc(C[n+]2csc(CCOP(=O)(O)OP(=O)(O)O)c2C)c(N)n1
binding [1]: no

Compound: O=C(O)c1cccnc1
binding ([4]; tested at 0.1 and 1 mM): no

Next, values leading:

binding [2]: no | binding [1]: yes | binding [3]: no
Compound: NC(=O)c1ccc[n+]([C@@H]2O[C@H](COP(=O)(O)O)[C@@H](O)[C@H]2O)c1

KD ([4]; apparent): ~ 100 µM
Compound: NC(=O)c1ccc[n+]([C@@H]2O[C@H](COP(=O)([O-])OP(=O)(O)OC[C@H]3O[C@@H](n4cnc5c(N)ncnc54)[C@H](O)[C@@H]3O)[C@@H](O)[C@H]2O)c1
